In assay [1] the test system is HL-60. The experiment in a line: Cytotoxicity against human HL60 cells assessed as growth inhibition at 10 uM by MTT assay relative to control. It is filed as functional. Particulars: read-out: GI.
Assay [2] concerns A549. The experiment in a line: Cytotoxicity against human A549 cells assessed as growth inhibition at 10 uM by SRB assay relative to control. It is filed as functional. Particulars: read-out: GI. For orientation: The SRB assay estimates cell density from bound dye.
Assay [3] concerns HL-60. The experiment in a line: Cytotoxicity against human HL60 cells by MTT assay. It is filed as functional, cell-based. Background: Tetrazolium assays rely on reduction of a dye to a coloured formazan, in cell work by metabolically active cells.
Assay [4] concerns A549. The assay can be described thus: Cytotoxicity against human A549 cells by SRB assay. It is filed as functional, cell-based.

Bounds are passed on as bounds.

In the case of `COc1cc(C[C@@]2(O)C(=O)O[C@@H](c3ccc(O)c(OC)c3)[C@@H]2CO)ccc1O`, the inhibition of growth at 10 µM in assay [1] and in assay [2] was less than 50% throughout.
Regarding `Cc1cc(=O)cc2c3c1[C@@H](O)[C@@H]1[C@H]4OC(=O)[C@](CC2)([C@H](C)[C@H]4O)[C@H]31`, the inhibition of growth at 10 µM in assay [1] and in assay [2] was less than 50% throughout.
With `CC(CO)c1cc2c(cc1O)[C@@]1(C)CC[C@H](O)C(C)(C)[C@@H]1CC2=O` (stereo not given in full), the inhibition of growth at 10 µM in assay [1] and in assay [2] was less than 50% throughout.
Usually IC50 stands for the midpoint of a concentration-inhibition curve. A lower IC50 goes with greater potency in that assay. As to `Cc1cc(=O)cc2c3c1C(=O)[C@@H]1[C@H]4OC(=O)[C@](CC2)([C@H](C)[C@H]4O)[C@H]31`, the IC50 in assay [3] was found to be 770 nM; in assay [4], 1130 nM.
Turning to `Cc1cc(=O)cc2c3c1C[C@@H]1[C@H]4OC(=O)[C@](CC2)([C@H](C)[C@H]4O)[C@]31O`, the inhibition of growth at 10 µM in assay [1] and in assay [2] was less than 50% throughout.
For the molecule `C[C@@H]1[C@@H](O)[C@@H]2OC(=O)[C@]13CC[C@@H]1C[C@H](O)C[C@H](C)C4=C1[C@@H]3[C@@H]2C4=O`, the inhibition of growth at 10 µM in assay [1] and in assay [2] was less than 50% each time.
On to `COc1cc([C@@H]2Oc3cc(OC)c(OC)cc3[C@H]2CO)ccc1O`, for which the inhibition of growth at 10 µM in assay [1] and in assay [2] was less than 50% in each case.
Take `C[C@@H]1[C@@H](O)[C@@H]2OC(=O)[C@]13CC[C@@H]1C[C@@H](O)C[C@H](C)C4=C1[C@@H]3[C@@H]2C4=O`: the inhibition of growth at 10 µM in assay [1] and in assay [2] was less than 50% throughout.
`COc1ccc(C[C@@]2(O)C(=O)O[C@@H](c3ccc(OC)c(OC)c3)[C@@H]2CO)cc1OC`: the inhibition of growth at 10 µM in assay [1] and in assay [2] was less than 50% throughout.
In the case of `COc1cccc2c1C(=O)c1c(O)c3c(c(O)c1C2=O)C[C@@](O)(C(=O)CO)C[C@@H]3O[C@H]1C[C@H](N)[C@H](O)[C@H](C)O1` [DOXORUBICIN], the IC50 in assay [3] amounted to 31 nM; in assay [4], 124 nM.

Source of the values: ChEMBL document CHEMBL4014263, “Diterpenoids and Lignans from Cephalotaxus fortunei” (J Nat Prod, 2017).
